Patent publication US4335249A, “Herbicidal diphenyl ethers, sulfides, sulfoxides and sulfones” (Rohm and Haas Company, priority 1976, dated 1982)

Assays:
Format in all cases: in vivo
[1] = test system: yellow nutsedge (Cyperus esculentus); test: Preemergence herbicidal activity, yellow nutsedge
Method: (§1) Using the procedure described below, compounds of the invention are evaluated for control of several of the following plant species:
(§2) The following est procedure is employed. Seeds of selected crops and weeds are planted in soil in flats. For preemergence tests, the flats are treated with the test compound immediately after the planting. For postemergence tests, the seeds are allowed to germinate, and after two weeks the flats are treated with the test compound. The compound to be evaluated is dissolved in acetone, diluted with water, and sprayed over the flats using a carrier volume equivalent to 50 gallons per acre at the rate of application (pounds per acre, lb/A.) specified in the tables. About two weeks after the application of the test compound, the state of growth of the plants is observed and the phytotoxic effect of the compound is evaluated. Tables III and IV give the average percent control achieved by test compounds in terms of the percent of the plants which are killed by the compounds.

[2] = test system: yellow nutsedge (Cyperus esculentus); test: Postemergence herbicidal activity, yellow nutsedge
Method: as §1, §2

[3] = test system: morningglory (Ipomoca spp.); test: Preemergence herbicidal activity, morningglory
Method: as §1, §2

[4] = test system: velvetleaf (Abutilon theophrasti); test: Preemergence herbicidal activity, velvetleaf; conditions: Pre
Method: as §1, §2

[5] = test system: downybrome (Bromus tectorum); test: Preemergence herbicidal activity, downybrome; conditions: Pre
Method: as §1, §2

[6] = test system: tomato (Lycopersicon esculentum); test: Postemergence herbicidal activity, tomato; conditions: Post
Method: as §1, §2

[7] = test system: foxtail (Setaria spp.); test: Preemergence herbicidal activity, foxtail; conditions: Pre
Method: as §1, §2

[8] = test system: foxtail (Setaria spp.); test: Postemergence herbicidal activity, foxtail; conditions: Post
Method: as §1, §2

[9] = test system: velvetleaf (Abutilon theophrasti); test: Postemergence herbicidal activity, velvetleaf
Method: as §1
(§3) The following est procedure is employed. Seeds of selected crops and weeds are planted in soil in flats. For preemergence tests, the flats are treated with the test compound immediately after the planting. For postemergence tests, the seeds are allowed to germinate, and after two weeks the flats are treated with the test compound. The compound to be evaluated is dissolved in acetone, diluted with water, and sprayed over the flats using a carrier volume equivalent to 50 gallons per acre at the rate of application (pounds per acre, lb/A.) specified in the tables.

[10] = test system: marigold (Tagetes spp.); test: Postemergence herbicidal activity, marigold
Method: as §1, §2

[11] = test system: downybrome (Bromus tectorum); test: Postemergence herbicidal activity, downybrome; conditions: Post
Method: as §1, §2

[12] = test system: cocklebur (Xanthium pensylvanicum); test: Preemergence herbicidal activity, cocklebur
Method: as §1, §2

[13] = test system: cocklebur (Xanthium pensylvanicum); test: Postemergence herbicidal activity, cocklebur
Method: as §1, §2

[14] = test system: wild oats (Avena fatua); test: Preemergence herbicidal activity, wild oats; conditions: Pre
Method: as §1, §2

[15] = test system: barnyardgrass (Echinochloa crusgalli); test: Postemergence herbicidal activity, barnyardgrass; conditions: Post
Method: as §1, §3

[16] = test system: morningglory (Ipomoca spp.); test: Postemergence herbicidal activity, morningglory
Method: as §1, §2

[17] = test system: barnyardgrass (Echinochloa crusgalli); test: Preemergence herbicidal activity, barnyardgrass; conditions: Pre
Method: as §1, §3

[18] = test system: wild oats (Avena fatua); test: Postemergence herbicidal activity, wild oats; conditions: Post
Method: as §1, §2

[19] = test system: tomato (Lycopersicon esculentum); test: Preemergence herbicidal activity, tomato; conditions: Pre
Method: as §1, §2

[20] = test system: marigold (Tagetes spp.); test: Preemergence herbicidal activity, marigold
Method: as §1, §2

## CC(Oc1ccc(Oc2ccc(C(F)(F)F)cc2)cc1)C(N)=O (stereo not drawn) [Example 40, 2-[4-(4-trifluoromethylphenoxy)phenoxy] propanamide]
[1]; Cyperus, pre-emergence, 336 h, 2 lb/A
  pest or weed control at 2241.7 g/ha: 0%
[2]; Cyperus, post-emergence, 336 h, 2 lb/A
  pest or weed control at 2241.7 g/ha: 0%
[3]; Ipomoea, pre-emergence, 336 h, 2 lb/A
  pest or weed control at 2241.7 g/ha: 0%
[4]; Abutilon theophrasti, pre-emergence, 336 h, 2 lb/A
  pest or weed control at 2241.7 g/ha: 0%
[5]; Bromus tectorum, pre-emergence, 336 h, 2 lb/A
  pest or weed control at 2241.7 g/ha: 80%
[6]; Solanum lycopersicum, post-emergence, 336 h, 2 lb/A
  pest or weed control at 2241.7 g/ha: 0%
[7]; Setaria, pre-emergence, 336 h, 2 lb/A
  pest or weed control at 2241.7 g/ha: 100%
[8]; Setaria, post-emergence, 336 h, 2 lb/A
  pest or weed control at 2241.7 g/ha: 95%
[9]; Abutilon theophrasti, post-emergence, 336 h, 2 lb/A
  pest or weed control at 2241.7 g/ha: 0%
[10]; post-emergence, 336 h, 2 lb/A
  pest or weed control at 2241.7 g/ha: 0%
[11]; Bromus tectorum, post-emergence, 336 h, 2 lb/A
  pest or weed control at 2241.7 g/ha: 40%
[12]; Xanthium strumarium, pre-emergence, 336 h, 2 lb/A
  pest or weed control at 2241.7 g/ha: 0%
[13]; Xanthium strumarium, post-emergence, 336 h, 2 lb/A
  pest or weed control at 2241.7 g/ha: 20%
[14]; Avena fatua, pre-emergence, 336 h, 2 lb/A, read-out: % control, Wild oat
  pest or weed control at 2241.7 g/ha: 60%
[15]; Echinochloa crus-galli, post-emergence, 336 h, 2 lb/A
  pest or weed control at 2241.7 g/ha: 99%
[16]; Ipomoea, post-emergence, 336 h, 2 lb/A
  pest or weed control at 2241.7 g/ha: 0%
[17]; Echinochloa crus-galli, pre-emergence, 336 h, 2 lb/A
  pest or weed control at 2241.7 g/ha: 99%
[18]; Avena fatua, post-emergence, 336 h, 2 lb/A, read-out: % control, Wild oat
  pest or weed control at 2241.7 g/ha: 95%
[19]; Solanum lycopersicum, pre-emergence, 336 h, 2 lb/A
  pest or weed control at 2241.7 g/ha: 0%
[20]; pre-emergence, 336 h, 2 lb/A
  pest or weed control at 2241.7 g/ha: 0%

## CCOC(=O)C(C)Oc1ccc([S+]([O-])c2ccccc2C(F)(F)F)cc1 (stereo not drawn) [Example 49, Ethyl 2-[4-(2-trifluoromethylphenylsulfinyl)phenoxy]propionate]
[1]; Cyperus, pre-emergence, 336 h, 4 lb/A
  pest or weed control at 4483.4 g/ha: 0%
[2]; Cyperus, post-emergence, 336 h, 4 lb/A
  pest or weed control at 4483.4 g/ha: 0%
[3]; Ipomoea, pre-emergence, 336 h, 4 lb/A
  pest or weed control at 4483.4 g/ha: 0%
[4]; Abutilon theophrasti, pre-emergence, 336 h, 4 lb/A
  pest or weed control at 4483.4 g/ha: 0%
[5]; Bromus tectorum, pre-emergence, 336 h, 4 lb/A
  pest or weed control at 4483.4 g/ha: 0%
[6]; Solanum lycopersicum, post-emergence, 336 h, 4 lb/A
  pest or weed control at 4483.4 g/ha: 20%
[7]; Setaria, pre-emergence, 336 h, 4 lb/A
  pest or weed control at 4483.4 g/ha: 0%
[8]; Setaria, post-emergence, 336 h, 4 lb/A
  pest or weed control at 4483.4 g/ha: 20%
[9]; Abutilon theophrasti, post-emergence, 336 h, 4 lb/A
  pest or weed control at 4483.4 g/ha: 20%
[10]; post-emergence, 336 h, 4 lb/A
  pest or weed control at 4483.4 g/ha: 0%
[11]; Bromus tectorum, post-emergence, 336 h, 4 lb/A
  pest or weed control at 4483.4 g/ha: 0%
[12]; Xanthium strumarium, pre-emergence, 336 h, 4 lb/A
  pest or weed control at 4483.4 g/ha: 0%
[13]; Xanthium strumarium, post-emergence, 336 h, 4 lb/A
  pest or weed control at 4483.4 g/ha: 0%
[14]; Avena fatua, pre-emergence, 336 h, 4 lb/A, read-out: % control, Wild oat
  pest or weed control at 4483.4 g/ha: 0%
[15]; Echinochloa crus-galli, post-emergence, 336 h, 4 lb/A
  pest or weed control at 4483.4 g/ha: 20%
[16]; Ipomoea, post-emergence, 336 h, 4 lb/A
  pest or weed control at 4483.4 g/ha: 0%
[17]; Echinochloa crus-galli, pre-emergence, 336 h, 4 lb/A
  pest or weed control at 4483.4 g/ha: 0%
[18]; Avena fatua, post-emergence, 336 h, 4 lb/A, read-out: % control, Wild oat
  pest or weed control at 4483.4 g/ha: 30%
[19]; Solanum lycopersicum, pre-emergence, 336 h, 4 lb/A
  pest or weed control at 4483.4 g/ha: 0%
[20]; pre-emergence, 336 h, 4 lb/A
  pest or weed control at 4483.4 g/ha: 0%

## CC(Oc1ccc(Oc2ccc(C(F)(F)F)cc2Cl)cc1)C(=O)O (stereo not drawn) [Example 17]
[1]; Pre, 2 lb/A
  % control, Nutsedge: 0%
[2]; Post, 2 lb/A
  % control, Nutsedge: 0%
[3]; Pre, 2 lb/A
  % control, Morningglory: 0%
[4]; 2 lb/A
  % control, Velvetleaf: 0%
[5]; 2 lb/A
  % control, Downybrome: 30%
[6]; 2 lb/A
  % control, Tomato: 0%
[7]; 2 lb/A
  % control, Foxtail: 100%
[8]; 2 lb/A
  % control, Foxtail: 90%
[9]; Post, 2 lb/A
  % control, Velvetleaf: 0%
[10]; Post, 2 lb/A
  % control, Marigold: 0%
[11]; 2 lb/A
  % control, Downybrome: 0%
[12]; Pre, 2 lb/A
  % control, Cocklebur: 0%
[13]; Post, 2 lb/A
  % control, Cocklebur: 0%
[14]; 2 lb/A
  % control, Wild oat: 95%
[15]; 2 lb/A
  % control, Barnyardgrass: 99%
[16]; Post, 2 lb/A
  % control, Morningglory: 0%
[17]; 2 lb/A
  % control, Barnyardgrass: 100%
[18]; 2 lb/A
  % control, Wild oat: 80%
[19]; 2 lb/A
  % control, Tomato: 0%
[20]; Pre, 2 lb/A
  % control, Marigold: 0%
